In the supplement of paper PMC10307832:

Tests used:
Experiment in all cases: relative viability (nuclei count vs DMSO), 5 days (fraction); higher = more cells survive
Pictilisib + Trametinib = compound: CS(=O)(=O)N1CCN(Cc2cc3nc(-c4cccc5[nH]ncc45)nc(N4CCOCC4)c3s2)CC1 [Pictilisib] + CC(=O)Nc1cccc(-n2c(=O)n(C3CC3)c(=O)c3c(Nc4ccc(I)cc4F)n(C)c(=O)c(C)c32)c1 [Trametinib] (partner 0.02 µM)
Summary of the method: (§1)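 Relative viability is defined as nuclei in treated wells over nuclei in vehicle wells. Duplicate plates were run and medians reported. Lung cancer cell lines in 1536-well plates were dosed by pin tool one day after seeding, with one drug or with a fixed anchor-drug dose plus five library-drug doses (not always all listed) in √10 steps, and nuclei were counted after 5 days.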

Pictilisib + Luminespib = compound: CS(=O)(=O)N1CCN(Cc2cc3nc(-c4cccc5[nH]ncc45)nc(N4CCOCC4)c3s2)CC1 [Pictilisib] + CCNC(=O)c1noc(-c2cc(C(C)C)c(O)cc2O)c1-c1ccc(CN2CCOCC2)cc1 [Luminespib] (partner 0.01 µM)
Summary of the method: as §1

Pictilisib + Crizotinib = compound: CS(=O)(=O)N1CCN(Cc2cc3nc(-c4cccc5[nH]ncc45)nc(N4CCOCC4)c3s2)CC1 [Pictilisib] + C[C@@H](Oc1cc(-c2cnn(C3CCNCC3)c2)cnc1N)c1c(Cl)ccc(F)c1Cl [Crizotinib] (partner 1 µM)
Summary of the method: as §1

Pictilisib + Decitabine = compound: CS(=O)(=O)N1CCN(Cc2cc3nc(-c4cccc5[nH]ncc45)nc(N4CCOCC4)c3s2)CC1 [Pictilisib] + Nc1ncn([C@H]2C[C@H](O)[C@@H](CO)O2)c(=O)n1 [Decitabine] (partner 2 µM)
Summary of the method: as §1

MK-2206 + OSI-027 = compound: NC1(c2ccc(-c3nc4ccn5c(=O)[nH]nc5c4cc3-c3ccccc3)cc2)CCC1 [MK-2206] + COc1cccc2cc(-c3nc([C@H]4CC[C@H](C(=O)O)CC4)n4ncnc(N)c34)[nH]c12 [OSI-027] (partner 0.5 µM)
Summary of the method: as §1

| Cell Line | relative viability (Pictilisib + Trametinib; first compound 0.02 µM) | relative viability (Pictilisib + Trametinib; first compound 0.06325 µM) | relative viability (Pictilisib + Trametinib; first compound 0.6325 µM) | relative viability (Pictilisib + Trametinib; first compound 2 µM) | relative viability (Pictilisib + Luminespib; first compound 0.02 µM) | relative viability (Pictilisib + Luminespib; first compound 0.06325 µM) | relative viability (Pictilisib + Luminespib; first compound 0.6325 µM) | relative viability (Pictilisib + Luminespib; first compound 2 µM) | relative viability (Pictilisib + Crizotinib; first compound 0.02 µM) | relative viability (Pictilisib + Crizotinib; first compound 0.06325 µM) | relative viability (Pictilisib + Crizotinib; first compound 0.6325 µM) | relative viability (Pictilisib + Crizotinib; first compound 2 µM) | relative viability (Pictilisib + Decitabine; first compound 0.02 µM) | relative viability (Pictilisib + Decitabine; first compound 0.06325 µM) | relative viability (Pictilisib + Decitabine; first compound 0.6325 µM) | relative viability (Pictilisib + Decitabine; first compound 2 µM) | relative viability (MK-2206 + OSI-027; first compound 0.01 µM) | relative viability (MK-2206 + OSI-027; first compound 0.03162 µM) | relative viability (MK-2206 + OSI-027; first compound 0.3162 µM) | relative viability (MK-2206 + OSI-027; first compound 1 µM) |
| --- | --- | --- | --- | --- | --- | --- | --- | --- | --- | --- | --- | --- | --- | --- | --- | --- | --- | --- | --- | --- |
| NCI-H2085 | 0.443 | 0.471 | 0.2 | 0.26 | 0.44 | 0.431 | 0.409 | 0.265 | 0.887 | 0.994 | 0.747 | 0.394 | 0.521 | 0.631 | 0.511 | 0.369 | 0.676 | 0.819 | 0.474 | 0.365 |
| NCI-H650 | 1.03 | 0.969 | 0.8 | 0.5 | 0.759 | 0.809 | 0.802 | 0.483 | 0.762 | 0.712 | 0.629 | 0.642 | 0.336 | 0.297 | 0.318 | 0.411 | 0.476 | 0.509 | 0.417 | 0.415 |
| NCI-H727 | 0.409 | 0.367 | 0.344 | 0.331 | 0.443 | 0.334 | 0.29 | 0.346 | 0.934 | 0.912 | 0.76 | 0.401 | 0.651 | 0.979 | 0.699 | 0.781 | 0.479 | 0.615 | 0.537 | 0.52 |
| NCI-H1993 | 0.543 | 0.469 | 0.523 | 0.488 | 0.73 | 0.634 | 0.55 | 0.523 | 0.766 | 0.691 | 0.726 | 0.638 | 0.692 | 0.483 | 0.459 | 0.458 | 0.493 | 0.579 | 0.469 | 0.595 |
| EMC-BAC-2 | 0.863 | 0.869 | 0.685 | 0.513 | 1.23 | 0.945 | 0.926 | 0.656 | 0.779 | 0.811 | 0.691 | 0.601 | 0.967 | 0.978 | 0.838 | 0.653 | 0.415 | 0.364 | 0.287 | 0.313 |
| NCI-H2087 | 0.204 | 0.165 | 0.138 | 0.153 | 0.138 | 0.144 | 0.19 | 0.165 | 0.912 | 0.828 | 1.03 | 0.985 | 0.212 | 0.344 | 0.189 | 0.151 | 0.548 | 0.636 | 0.392 | 0.303 |
| NCI-H441 | 0.462 | 0.521 | 0.258 | 0.195 | 0.307 | 0.236 | 0.269 | 0.221 | 0.513 | 0.632 | 0.504 | 0.388 | 0.263 | 0.234 | 0.265 | 0.281 | 0.922 | 0.473 | 0.428 | 0.393 |
| LXF-289 | 0.693 | 0.691 | 0.705 | 0.385 | 0.687 | 0.514 | 0.78 | 0.344 | 0.862 | 0.837 | 0.843 | 0.752 | 0.361 | 0.4 | 0.337 | 0.443 | 0.782 | 0.862 | 0.604 | 0.743 |
| NCI-H661 | 0.532 | 0.589 | 0.469 | 0.356 | 0.969 | 0.938 | 0.953 | 0.813 |  | 1.01 | 1.24 | 0.729 | 0.546 | 0.58 | 0.523 | 0.412 | 0.729 | 0.659 | 0.563 | 0.584 |
| PC-3 [JPC-3] | 0.727 | 0.658 | 0.586 | 0.433 | 0.604 | 0.775 | 0.509 | 0.462 | 0.983 | 0.969 | 1.03 | 0.905 | 0.84 | 0.92 | 0.813 | 0.748 | 0.825 | 0.749 | 0.6 | 0.641 |
| NCI-H1651 | 0.753 | 0.825 | 0.7 | 0.656 | 0.841 | 0.65 | 0.889 | 0.473 | 0.855 | 0.863 | 0.84 | 0.683 | 0.473 | 0.603 | 0.505 | 0.413 | 0.786 | 0.684 | 0.807 | 0.784 |
| NCI-H1355 | 0.4 | 0.343 | 0.295 | 0.198 | 0.731 | 0.593 | 0.582 | 0.272 | 1.1 | 0.983 | 0.876 | 0.606 | 0.336 | 0.388 | 0.383 | 0.331 | 0.394 | 0.433 | 0.289 | 0.235 |
| LC-2-ad | 0.892 | 0.945 | 0.73 | 0.629 | 1.17 | 1.07 | 0.757 | 0.607 | 0.443 | 0.52 | 0.392 | 0.359 | 0.758 | 0.836 | 0.661 | 0.637 | 0.76 | 0.837 | 0.592 | 0.383 |
| NCI-H1944 | 0.451 | 0.349 | 0.337 | 0.183 | 0.768 | 0.46 | 0.498 | 0.239 | 1.11 | 0.962 | 0.933 | 0.603 | 0.423 | 0.352 | 0.391 | 0.315 | 0.478 | 0.447 | 0.361 | 0.326 |
| HCC-827 | 0.519 | 0.422 | 0.378 | 0.235 | 1.01 | 0.472 | 0.224 | 0.152 | 0.901 | 0.991 | 0.921 | 0.548 | 0.258 | 0.363 | 0.288 | 0.311 | 0.78 | 0.871 | 0.655 | 0.391 |
| COR-L23 | 0.596 | 0.582 | 0.384 | 0.285 | 0.768 | 0.808 | 0.562 | 0.442 | 0.584 | 0.75 | 0.668 | 0.594 | 0.443 | 0.474 | 0.402 | 0.372 | 0.793 | 0.712 | 0.689 | 0.611 |
